pIC50: −log10 of the molar value.
Legend:
IDO1 [1] = target: T1, IDO1 (Homo sapiens, UniProt P14902); test: IDO1 Cellular Assay in Hela Cells Stimulated with IFNγ; format: cell-based; conditions: IFNγ 100 ng/mL, 300 uM L-tryptophan, about 48 hours, fluorescence readout, read-out: IDO1 HELA Cell Assay, IC50
In short: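 HeLa cells stimulated with 100 ng/mL IFNγ, supplemented with 300 uM L-tryptophan, incubated 48 h at 37° C with ten 3-fold compound dilutions. Unstimulated cells served as Max-E control. Kynurenine detected by fluorescence (ex 400/em 510 nm) after overnight methyl isonipecotate reaction; IC50 by four-parameter logistic fit.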

IDO1 [2] = target: T1, IDO1; test: IDO1 Human whole blood Assay; format: cell-based; set-up: Human whole blood was drawn in sodium heparin coated tubes from healthy internal donors; from tissue; host or cells: Human whole blood from healthy donors, stimulated with LPS and IFNγ; conditions: LPS and IFNγ 100 ng/mL, 18 h, kynurenine by LC/MS/MS
Description: Compounds to be tested were serially diluted in ten 3-fold steps in DMSO starting from 10 mM. 3 μL of compound dilutions or DMSO alone were then dispensed from the dilution plate into a polypropylene 96-well assay plate containing 97 μL of RPMI using an Echo 555 acoustic liquid handler (Labcyte). LPS and IFNγ was prepared in RPMI to a 10× of final conc. (1000 ng/mL), final concentration is 100 ng/mL.
Human whole blood was drawn in sodium heparin coated tubes from healthy internal donors. Two hundred forty μL of blood was transferred to each of the wells of a v-bottom 96 well plate. Thirty μL of compound was transferred from intermediate dilution plate, and incubated for 15 min. Thirty μL from stimulants was then transferred to blood and mixed thoroughly. Plate was covered with breathable membrane and incubated at 37° C. for overnight (18 h).
On day 2 isotope labeled standard of kynurenine and tryptophan was made in water at 10× concentration and 30 μL was added to the blood at 3 μM final concentration. The assay plates were centrifuged at 300×G for 10 min with no brake to separate plasma from red blood cells. Sixty μL of plasma samples was removed without disturbing red blood cells. Plasma was diluted with RPMI in 1:1 ratio and proteins were precipitated out with two volume of acetonitrile. The plates were centrifuged at 4000×G for 60 min. Twenty μL of supernatant was carefully transferred to a 384 well plate containing 40 μL of 0.1% formic acid in water and analyzed by LC/MS/MS.
LC/MS/MS analyses were performed using Thermo Fisher's LX4-TSQ Quantum Ultra system. This system consists of four Agilent binary high-performance liquid chromatography (HPLC) pumps and a TSQ Quantum Ultra triple quadruple MS/MS instrument. For each sample, 5 μL were injected onto an Atlantis T3 column (2.1 mm×150 mm, 3 μm particle size) from Waters. The mobile phase gradient pumped at 0.8 mL/min was used to elute the analytes from the column at 25° C. The elution started at 0% B increasing linearly to 25% B at 6.5 min, holding at 25% for 1 min, re-equilibrating to 10 min. Mobile phase A consisted of 0.1% formic acid in water. Mobile phase B consisted of 0.1% of formic acid in acetonitrile. Data was acquired in positive mode using a HESI interface. The operational parameters for the TSQ Quantum Ultra instrument were a spray voltage of 4000 V, capillary temperature of 380° C., vaporizer temperature 400° C., shealth gas 60 arbitrary units, Aux gas 20 arbitrary units, tube lens 85 and collision gas 1.2 mTorr. SRM chromatograms of kynurenine (Q1: 209.2>Q3:94.0) and internal standard (Q1: 215.3>Q3:98.2) were collected for 90 sec. The peak area was integrated by Xcalibur Quan software. The ratios between the kynurenine generated in the reaction and 2D6-Kynurenine spiked-in internal standard were used to generate percentage inhibition and IC50 values. Compounds were titrated and IC50's were calculated by 4 parameter sigmoidal curve fitting formula.
The biological activity data of selective compounds using the IDO1 human whole blood assay described above are summarized in the table below.

T1 sequence (P14902 whole entry): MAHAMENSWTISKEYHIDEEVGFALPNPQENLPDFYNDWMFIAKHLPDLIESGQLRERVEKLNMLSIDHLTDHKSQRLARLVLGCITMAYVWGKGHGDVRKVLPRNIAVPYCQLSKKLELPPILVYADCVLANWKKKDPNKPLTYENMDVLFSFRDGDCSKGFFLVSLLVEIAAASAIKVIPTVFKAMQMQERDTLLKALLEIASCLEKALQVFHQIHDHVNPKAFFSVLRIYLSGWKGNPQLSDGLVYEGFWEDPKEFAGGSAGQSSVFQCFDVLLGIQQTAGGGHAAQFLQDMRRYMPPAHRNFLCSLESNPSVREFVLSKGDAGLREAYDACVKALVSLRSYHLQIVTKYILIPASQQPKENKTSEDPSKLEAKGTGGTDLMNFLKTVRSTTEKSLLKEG

Row | Compound | pIC50 (IDO1 [1]) | pIC50 (IDO1 [2])
1 | CC(C(=O)Nc1ccc(F)nc1)C12CC(NC(=O)c3ccc(Cl)c(Cl)c3)(C1)C2 (single isomer, unassigned) [Example 14, 3,4-dichloro-N-(3-(1-((6-fluoropyridin-3-yl)amino)-1-oxopropan-2-yl)bicyclo[1.1.1]pentan-1-yl)benzamide] | 8.21 | 6.39
2 | CC(C(=O)Nc1ccc(F)cc1)C12CC(NC(=O)c3cccc(Cl)c3)(C1)C2 (single isomer, unassigned) [Example 1, 3-Chloro-N-(3-(1-((4-fluorophenyl)amino)-1-oxopropan-2-yl)bicyclo[1.1.1]pentan-1-yl)benzamide] | 8.52 | 6.95
3 | C[C@H](C(=O)Nc1ccc(F)cc1)C12CC(NC(=O)OC3CCCC3)(C1)C2 [Example 77, cyclopentyl (S)-(3-(1-((4-fluorophenyl)amino)-1-oxopropan-2-yl)bicyclo[1.1.1]pentan-1-yl)carbamate] | – | 6.34
4 | CC(C(=O)Nc1ccc(Cl)c(F)c1)C12CC(NC(=O)c3cccc(Cl)c3)(C1)C2 (single isomer, unassigned) [Example 11, 3-chloro-N-(3-(1-((4-chloro-3-fluorophenyl)amino)-1-oxopropan-2-yl)bicyclo[1.1.1]pentan-1-yl)benzamide] | 8.80 | 6.28
5 | Cc1ccc(C(=O)NC23CC([C@@H](C)C(=O)Nc4ccc(F)cc4)(C2)C3)cc1Cl [Example 36, 3-chloro-N-[3-[(1R)-2-(4-fluoroanilino)-1-methyl-2-oxo-ethyl]-1-bicyclo[1.1.1]pentanyl]-4-methyl-benzamide] | 8.67 | 6.86
6 | Cc1cc(C(=O)NC23CC([C@@H](C)C(=O)Nc4ccc(F)cc4)(C2)C3)ccc1F [Example 46, 4-fluoro-N-[3-[(1R)-2-(4-fluoroanilino)-1-methyl-2-oxo-ethyl]-1-bicyclo[1.1.l]pentanyl]-3-methyl-benzamide] | 8.67 | 6.86
7 | O=C(NC12CC(C3(C(=O)Nc4ccc(F)cc4)CC3)(C1)C2)c1ccc(Cl)c(Cl)c1 [Example 100, 3,4-Dichloro-N-(3-(1-((4-fluorophenyl)carbamoyl)cyclopropyl)bicyclo[1.1.1]pentan-1-yl)benzamide] | 8.48 | 6.34
8 | CC(C(=O)Nc1ccc(F)cc1)C12CC(NC(=O)c3ccc(Cl)c(Cl)c3)(C1)C2 (single isomer, unassigned) [Example 8, 3,4-dichloro-N-(3-(1-((4-fluorophenyl)amino)-1-oxopropan-2-yl)bicyclo[1.1.1]pentan-1-yl)benzamide] | 8.51 | 6.11
9 | C[C@H](C(=O)Nc1ccc(F)cc1)C12CC(NC(=O)c3cc(Cl)ccc3F)(C1)C2 [Example 56, 5-chloro-2-fluoro-N-[3-[(1S)-2-(4-fluoroanilino)-1-methyl-2-oxo-ethyl]-1-bicyclo[1.1.1]pentanyl]benzamide] | 8.60 | 6.48
10 | C[C@H](C(=O)Nc1ccc(F)cc1)C12CC(NC(=O)c3ccc(Cl)cc3F)(C1)C2 [Example 52, 4-chloro-2-fluoro-N-[3-[(1S)-2-(4-fluoroanilino)-1-methyl-2-oxo-ethyl]-1-bicyclo[1.1.1]pentanyl]benzamide] | 8.60 | 7.27
11 | CC(C(=O)Nc1ccc(Cl)cc1)C12CC(NC(=O)c3cccc(Cl)c3)(C1)C2 (single isomer, unassigned) [Example 7, 3-Chloro-N-(3-(1-((4-chlorophenyl)amino)-1-oxopropan-2-yl)bicyclo [1.1.1]pentan-1-yl) Benzamide] | 8.98 | 7.32
12 | CC(C(=O)Nc1ccc(Cl)nc1)C12CC(NC(=O)c3cccc(Cl)c3)(C1)C2 (single isomer, unassigned) [Example 17, 3-chloro-N-(3-(1-((6-chloropyridin-3-yl)amino)-1-oxopropan-2-yl)bicyclo[1.1.1]pentan-1-yl)benzamide] | 8.28 | 6.75
13 | O=C(NC12CC(C3(NC(=O)c4ccc(F)cc4)CC3)(C1)C2)c1ccc(Cl)c(Cl)c1 [Example 24, 3,4-Dichloro-N-(3-(1-(4-fluorobenzamido)cyclopropyl)bicyclo[1.1.1]pentan-1-yl)benzamide] | 8.38 | 6.40
14 | O=C(NC12CC(C3(C(=O)Nc4ccc(F)cc4)CCC3)(C1)C2)c1ccc(Cl)c(Cl)c1 [Example 5, 3,4-Dichloro-N-(3-(1-((4-fluorophenyl)carbamoyl)cyclobutyl)bicyclo[1.1.1]pentan-1-yl)benzamide] | 8.67 | 7.35
15 | CC(C(=O)Nc1ccc(F)cc1)C12CC(NC(=O)c3ccc(Cl)c(Cl)c3)(C1)C2 (single isomer, unassigned) [Example 9, 3,4-dichloro-N-(3-(1-((4-fluorophenyl)amino)-1-oxopropan-2-yl)bicyclo[1.1.1]pentan-1-yl)benzamide] | 8.81 | 6.03
16 | CC(C(=O)Nc1ccc(Cl)nc1)C12CC(NC(=O)c3ccc(Cl)c(Cl)c3)(C1)C2 (single isomer, unassigned) [Example 15, 3,4-dichloro-N-(3-(1-((6-chloropyridin-3-yl)amino)-1-oxopropan-2-yl)bicyclo[1.1.1]pentan-1-yl)benzamide] | 8.35 | 5.96
17 | C[C@H](C(=O)Nc1ccc(F)cc1)C12CC(NC(=O)c3cc(F)c(F)c(F)c3)(C1)C2 [Example 145, (S)-3,4,5-trifluoro-N-(3-(1-((4-fluorophenyl)amino)-1-oxopropan-2-yl)bicyclo[1.1.1]pentan-1-yl)benzamide] | 8.52 | 7.31
18 | C[C@@H](C(=O)Nc1ccc(F)cc1)C12CC(NC(=O)c3cccc(Cl)c3F)(C1)C2 [Example 38, 3-chloro-2-fluoro-N-[3-[(1R)-2-(4-fluoroanilino)-1-methyl-2-oxo-ethyl]-1-bicyclo[1.1.1]pentanyl]benzamide] | 8.70 | –
19 | CC(C)(C(=O)Nc1ccc(F)cc1)C12CC(NC(=O)c3cccc(Cl)c3)(C1)C2 [Example 102, 3-Chloro-N-(3-(1-((4-fluorophenyl)amino)-2-methyl-1-oxopropan-2-yl)bicyclo[1.1.1]pentan-1-yl)benzamide] | 7.72 | –
20 | CCOc1cccc(C(=O)NC23CC(C(C)C(=O)Nc4ccc(F)cc4)(C2)C3)n1 (stereo not shown) [Example 138, 6-ethoxy-N-[3-[2-(4-fluoroanilino)-1-methyl-2-oxo-ethyl]-1-bicyclo[1.1.1]pentanyl]pyridin-1-ium-2-carboxamide] | 6.41 | –
21 | CC(C(=O)Nc1ccc(F)cc1)C12CC(NC(=O)c3cccc4ccncc34)(C1)C2 (stereo not shown) [Example 130, N-[3-[2-(4-fluoroanilino)-1-methyl-2-oxo-ethyl]-1-bicyclo[1.1.1]pentanyl]isoquinolin-2-ium-8-carboxamide] | 6.61 | –

Source: US11478461B2, “[1.1.1] bicyclo compounds as indoleamine 2,3-dioxygenase inhibitors” (Merck Sharp & Dohme Corp., priority 2018, dated 2022)
